{"source": "paper PMC11350846", "about": "“Synthesis of Second-Generation Analogs of Temporin-SHa Peptide Having Broad-Spectrum Antibacterial and Anticancer Effects” (Antibiotics, 2024)", "key": {"[1]": {"tested_on": "human cancer and normal/non-cancerous cells", "format": "cell-based", "settings": "cancer or normal cells, except breast cancer MCF-7 cells; read-out: IC50, cancer or normal cell proliferation", "method": "(§1) The antiproliferative activity of the peptides was evaluated, as previously described using human cancer cell lines (A549 (lung), A2780 (ovary), HepG-2 (liver), MCF-7 (breast), MiaPaCa-2 (pancreas), MNT-1 (skin), and PC-3 (prostate)) and normal human lung fibroblasts (IMR-90) or epithelial cells (BEAS-2B). The cells were cultured in DMEM supplemented with 10% FBS, 1% L-glutamine, and 1% antibiotics at 37 °C in a 5% CO2 incubator. For the antiproliferative assay, cells were seeded in 96-well plates at approximately 3000 cells/well. Twenty-four hours later, cells were treated with increasing concentrations of peptides (1:2 serial dilution from 100 µM to 0 µM) for 48 h. After treatment, the number of viable cells was determined using a resazurin-based assay, and the fluorescence intensity was measured with a microplate reader (Ex 530 nm/Em 590 nm). The IC50 values of the peptides (i.e., the concentrations causing 50% inhibition of cell proliferation) were determined using GraphPad® Prism 7 software. The experiments were performed in triplicate (n = 3). The cytotoxicity of the peptides was also evaluated using confluent/no-dividing cells, as previously described. Briefly, human cells were seeded onto 96-well plates at 20,000 cells/well. When they reached 80–90% confluence (after 24–48 h), cells were treated with escalating concentrations of peptides. After 48h incubation, cell viability was measured using a resazurin assay and CC50 (i.e., the concentrations causing 50% inhibition of cell viability) and determined using GraphPad® Prism 7 software. The experiments were performed in triplicate (n = 3)."}, "[2]": {"experiment": "Circular dichroism, secondary structure (Bestsel)", "format": "physicochemical", "settings": "CD in 20 mM SDS", "method": "Circular dichroism of temporin SHa, [G10a]-SHa and newly synthesised second-generation analogs of [G10a]-SHa in 20 mM SDS are shown in Figure 2. In lipidic environments mimicked by SDS, peptides adopt an alpha helical structure due to their amphipathic nature. This structural feature is important for their antimicrobial activity, allowing for their insertion into bacterial membranes. The hydrophobic region of the peptide interacts with the hydrophobic portion of the lipid while the hydrophilic region remains exposed to the aqueous environment. The percentage of alpha helix, as well as the percentage of other secondary structures, was determined from CD data using Bestsel software (https://bestsel.elte.hu/index.php, (accessed on 22 June 2024)) (Table 3). Temporin-SHa (1) adopted a 49.5% α-helical structure, while its first-generation analog [G10a]-SHa (2) acquired a 82.4% alpha helical structure. The 84.6%, 88.7%, 4.7%, and 53.8% alpha helical structures were acquired for second-generation analogs 3, 4, 5, and 6, respectively.\nThe far-ultraviolet CD spectra were obtained using a JASCO J-810 spectropolarimeter (Jasco, Tokyo, Japan). In addition to this, the quartz cuvette of 10 mm path length was used. The temperature was maintained at 22 °C, and the output of the instrument was calibrated using D-(+)-10-camphorsulfonic acid. The peptides, which were present at a concentration of 1.0 mg/mL, were dissolved completely in 20 mM SDS at a concentration of 15 µM [21]. The instrument was set to record wavelengths ranging from 190 to 260 nm with a bandwidth of 2 nm. Ten consecutive scans (accumulations) were recorded for each spectrum at a rate of 50 nm/min, and the baseline was acquired under the same conditions."}, "[3]": {"tested_on": "human cancer cells", "format": "cell-based", "settings": "mean of all human cancer cells tested; read-out: IC50, mean over cancer cells", "method": "as §1"}}, "note": "Where a SMILES comes first, the peptide text is derived from it. [ ]: non-standard residue; d: D form."}
{"smiles": "CC[C@H](C)[C@H](NC(=O)CNC(=O)[C@H](CO)NC(=O)[C@H](CC(C)C)NC(=O)[C@@H](N)Cc1ccccc1)C(=O)N[C@H](C(=O)NCC(=O)N[C@@H](CCSC)C(=O)N[C@@H](CC(C)C)C(=O)NCC(=O)N[C@@H](CCCCN)C(=O)N[C@@H](CC(C)C)C(=O)N[C@@H](Cc1ccccc1)C(N)=O)C(C)C", "note": "[Temporin-SHa (1), H-Phe^1-Leu^2-Ser^3-Gly^4-IIe^5-Val^6-Gly^7-Met^8-Leu^9-Gly^10-Lys^11-Leu^12-Phe^13-NH2, reference compound] (H-FLSGIVGMLGKLF-NH2)", "values": [{"measurement": "IC50", "setting": "[1]", "value": "> 100", "unit": "µM"}, {"measurement": "Antiparallel", "setting": "[2]", "value": 0.00, "unit": "%"}, {"measurement": "Helix (alpha helical structure)", "setting": "[2]", "value": 49.5, "unit": "%"}, {"measurement": "Others", "setting": "[2]", "value": 49.80, "unit": "%"}, {"measurement": "Parallel", "setting": "[2]", "value": 0.00, "unit": "%"}, {"measurement": "Turn", "setting": "[2]", "value": 0.70, "unit": "%"}]}
{"smiles": "CC[C@H](C)[C@H](NC(=O)CNC(=O)[C@H](CO)NC(=O)[C@H](CC(C)C)NC(=O)[C@@H](N)Cc1ccccc1)C(=O)N[C@H](C(=O)NCC(=O)N[C@@H](CCSC)C(=O)N[C@@H](CC(C)C)C(=O)N[C@H](C)C(=O)N[C@@H](CCCCN)C(=O)N[C@@H](CC(C)C)C(=O)N[C@@H](Cc1ccccc1)C(N)=O)C(C)C", "note": "[[G10a]-SHa (2), H-Phe^1-Leu^2-Ser^3-Gly^4-IIe^5-Val^6-Gly^7-Met^8-Leu^9-D-Ala^10-Lys^11-Leu^12-Phe^13-NH2] (H-FLSGIVGML[dA]KLF-NH2)", "values": [{"measurement": "IC50", "setting": "[3]", "value": "18.7 ± 9", "unit": "µM"}, {"measurement": "Antiparallel", "setting": "[2]", "value": 17.60, "unit": "%"}, {"measurement": "Helix (alpha helical structure)", "setting": "[2]", "value": 82.4, "unit": "%"}, {"measurement": "Others", "setting": "[2]", "value": 0.00, "unit": "%"}, {"measurement": "Parallel", "setting": "[2]", "value": 0.00, "unit": "%"}, {"measurement": "Turn", "setting": "[2]", "value": 0.00, "unit": "%"}]}
